Patent US4495179A, “A51568 Antibiotic and process for producing thereof” (Eli Lilly and Company, priority 1983, dated 1985)
≈ marks a conversion by molar mass, not a printed value.

Key:
Clostridium difficile = assay: Agar-dilution MIC, Clostridium difficile strains (Table 11); assay type: cell-based
Source text: Antibiotic A51568 is also active against a number of strains of Clostridium difficile, as determined by the agar-dilution method.

Clostridium perfringens = assay type: cell-based; details: Clostridium perfringens 81; Table 10
Peptococcus prevoti = assay: Agar-dilution MIC, anaerobic bacteria (Table 10); assay type: cell-based; details: Peptococcus prevoti 1281
[1] = test system: Peptostreptococcus intermedius; assay: Agar-dilution MIC, anaerobic bacteria (Table 10); assay type: cell-based; details: Peptostreptococcus intermedius 1264
Propionibacterium acnes = assay: Agar-dilution MIC, anaerobic bacteria (Table 10); assay type: cell-based; details: Propionibacterium acnes 79
[2] = test system: Bacteroides thetaiotaomicron; assay: Agar-dilution MIC, anaerobic bacteria (Table 10); assay type: cell-based; details: Bacteroides thetaiotaomicron 1438
Strep. pyogenes C203 = assay: In vivo protection against experimental bacterial infection; details: mice, two doses subcutaneously
Protocol: (§1) Antibiotic A51568 has shown in vivo antimicrobial activity against experimental bacterial infections. When two doses of test compound were administered subcutaneously to mice in illustrative infections, the activity observed is measured as an ED50 [effective dose in mg/kg to protect fifty percent of the test animals: See Warren Wick et al., J. Bacteriol. 81, 233-235 (1961)]. The ED50 values observed for antibiotic A51568 are as follows: […]

Staph. aureus 3055 = assay: as above; details: mice, Staph. aureus 3055 infection, two doses subcutaneously
Protocol: as §1

Strep. pneumoniae Park I = assay: as above; details: mice, two doses subcutaneously
Protocol: as §1

Bacteroides vulgatis = assay: Agar-dilution MIC, anaerobic bacteria (Table 10); assay type: cell-based; details: Bacteroides vulgatis 1211
Bacteroides corrodens = assay: Agar-dilution MIC, anaerobic bacteria (Table 10); assay type: cell-based; details: Bacteroides corrodens 1874
Eubacterium aerofaciens = assay: Agar-dilution MIC, anaerobic bacteria (Table 10); assay type: cell-based; details: Eubacterium aerofaciens 1235
Escherichia coli = assay: Standard agar-dilution assay, aerobic bacteria (Table 9); assay type: cell-based
Protocol: (§2) The in vitro activity of antibiotic A51568 against a number of aerobic bacteria has been determined using a standard agar-dilution assay. The results, determined by reading the end point after 24 hours, are recorded in Table 9, which follows.

[3] = test system: Staphylococcus epidermidis; assay: as above; assay type: cell-based
Protocol: as §2

Staphylococcus aureus = assay: as above; assay type: cell-based
Protocol: as §2

[4] = test system: Streptococcus sp. Group D; assay: as above; assay type: cell-based
Protocol: as §2

Streptococcus pyogenes = assay: as above; assay type: cell-based; details: Streptococcus pyogenes C203, end point after 24 hours
Protocol: as §2

Klebsiella pneumoniae = assay: as above; assay type: cell-based
Protocol: as §2

Haemophilus influenzae = assay: as above; assay type: cell-based
Protocol: as §2

Streptococcus pneumoniae = assay: as above; assay type: cell-based; details: Streptococcus pneumoniae Park I, end point after 24 hours
Protocol: as §2

Compound `CC(C)C[C@@H](N)C(=O)N[C@@H]1C(=O)N[C@@H](CC(N)=O)C(=O)N[C@H]2C(=O)N[C@H]3C(=O)N[C@H](C(=O)N[C@H](C(=O)O)c4cc(O)cc(O)c4-c4cc3ccc4O)[C@H](O)c3ccc(c(Cl)c3)Oc3cc2cc(c3O[C@@H]2O[C@H](CO)[C@@H](O)[C@H](O)[C@H]2O[C@H]2C[C@](C)(N)C(O)[C@H](C)O2)Oc2ccc(cc2Cl)[C@H]1O` (stereo partly shown) [A51568, demethylvancomycin] has an MIC (Clostridium difficile; Clostridium difficile 107B) of 2 µg/mL (≈ 1.39 µM), an MIC (Clostridium difficile; Clostridium difficile 111F) of 2 µg/mL (≈ 1.39 µM) and an MIC (Clostridium difficile; Clostridium difficile 1153) of 2 µg/mL (≈ 1.39 µM). The MIC (Clostridium difficile; Clostridium difficile 2634) was 2 µg/mL (≈ 1.39 µM), the MIC (Clostridium difficile; Clostridium difficile 3424-5B) was 2 µg/mL (≈ 1.39 µM) and the MIC (Clostridium difficile; Clostridium difficile 3816) was 2 µg/mL (≈ 1.39 µM). The MIC (Clostridium difficile; Clostridium difficile 3950D) was 2 µg/mL (≈ 1.39 µM), the MIC (Clostridium difficile; Clostridium difficile 6890) was 2 µg/mL (≈ 1.39 µM) and the MIC (Clostridium difficile; Clostridium difficile 8484) was 2 µg/mL (≈ 1.39 µM). It also gave an MIC (Clostridium difficile; Clostridium difficile A-194) of 2 µg/mL (≈ 1.39 µM), an MIC (Clostridium difficile; Clostridium difficile A-195) of 2 µg/mL (≈ 1.39 µM) and an MIC (Clostridium difficile; Clostridium difficile A-196) of 2 µg/mL (≈ 1.39 µM). It also gave an MIC (Clostridium difficile; Clostridium difficile A-279) of 2 µg/mL (≈ 1.39 µM), an MIC (Clostridium difficile; Clostridium difficile A-280) of 2 µg/mL (≈ 1.39 µM) and an MIC (Clostridium difficile; Clostridium difficile A-281) of 2 µg/mL (≈ 1.39 µM). It also gave an MIC (Clostridium difficile; Clostridium difficile WAL-2112) of 2 µg/mL (≈ 1.39 µM), an MIC (Clostridium difficile; Clostridium difficile WAL-3657) of 2 µg/mL (≈ 1.39 µM) and an MIC (Clostridium difficile; Clostridium difficile WAL-4268) of 2 µg/mL (≈ 1.39 µM). The MIC (Clostridium perfringens) was 1 µg/mL (≈ 0.697 µM), the MIC (Peptococcus prevoti) was 32 µg/mL (≈ 22.3 µM) and the MIC [1] was 1 µg/mL (≈ 0.697 µM). For the same compound, the MIC (Propionibacterium acnes) was 1 µg/mL (≈ 0.697 µM), the MIC [2] was 32 µg/mL (≈ 22.3 µM) and the “ED50 (effective dose to protect fifty percent of the test animals)” value (Strep. pyogenes C203) was 3.03 mg/kg × 2. The “ED50 (effective dose to protect fifty percent of the test animals)” value (Staph. aureus 3055) was 1.79 mg/kg × 2, the “ED50 (effective dose to protect fifty percent of the test animals)” value (Strep. pneumoniae Park I) was 2.71 mg/kg × 2 and the MIC (Bacteroides vulgatis) was 32 µg/mL (≈ 22.3 µM). The MIC (Bacteroides corrodens) was 32 µg/mL (≈ 22.3 µM), the MIC (Eubacterium aerofaciens) was 2 µg/mL (≈ 1.39 µM) and the MIC (Escherichia coli; Escherichia coli EC14, end point after 24 hours) was over 128 µg/mL. The MIC (Escherichia coli; Escherichia coli N10, end point after 24 hours) was over 128 µg/mL, the MIC (Escherichia coli; Escherichia coli TEM, end point after 24 hours) was 128 µg/mL (≈ 89.2 µM) and the MIC ([3]; Staphylococcus epidermidis EPI1, end point after 24 hours) was 2 µg/mL (≈ 1.39 µM). For the same compound, the MIC ([3]; Staphylococcus epidermidis EPI2, end point after 24 hours) was 1 µg/mL (≈ 0.697 µM), the MIC (Staphylococcus aureus; Staphylococcus aureus 3055, end point after 24 hours) was 1 µg/mL (≈ 0.697 µM) and the MIC (Staphylococcus aureus; Staphylococcus aureus S13E, end point after 24 hours) was 1 µg/mL (≈ 0.697 µM). It also gave an MIC (Staphylococcus aureus; Staphylococcus aureus V41, end point after 24 hours) of 1 µg/mL (≈ 0.697 µM), an MIC (Staphylococcus aureus; Staphylococcus aureus X400, end point after 24 hours) of 2 µg/mL (≈ 1.39 µM) and an MIC ([4]; Streptococcus sp. Group D 9960, end point after 24 hours) of 4 µg/mL (≈ 2.79 µM). For the same compound, the MIC ([4]; Streptococcus sp. Group D X66, end point after 24 hours) was 1 µg/mL (≈ 0.697 µM), the MIC (Streptococcus pyogenes) was 1 µg/mL (≈ 0.697 µM) and the MIC (Klebsiella pneumoniae; Klebsiella pneumoniae KAE, end point after 24 hours) was over 128 µg/mL. The MIC (Klebsiella pneumoniae; Klebsiella pneumoniae X26, end point after 24 hours) was over 128 µg/mL, the MIC (Haemophilus influenzae; Haemophilus influenzae (resistant) R252, end point after 24 hours) was 128 µg/mL (≈ 89.2 µM) and the MIC (Haemophilus influenzae; Haemophilus influenzae (sensitive) Holt, end point after 24 hours) was 64 µg/mL (≈ 44.6 µM). For the same compound, the MIC (Streptococcus pneumoniae) was 0.5 µg/mL (≈ 0.348 µM).
